Experimental data: patent publication US10167262B2, “Herbicidal substituted 3-arylpyrazoles” (FMC CORPORATION, priority 2014, dated 2019)

Legend:
Assay type in all cases: in vivo
[1] = tested on: barnyardgrass (Echinochloa crus-galli); assay: Test B flooded paddy test, plant response rating 0-100; conditions: Flood, 250 g ai/ha; scale 0 to 100 (0 no effect, 100 complete control); 13 to 15 days
Description: (§1) At time of treatment, test pots were flooded to 3 cm above the soil surface, treated by application of test compounds directly to the paddy water, and then maintained at that water depth for the duration of the test. Treated plants and controls were maintained in a greenhouse for 13 to 15 days, after which time all species were compared to controls and visually evaluated. […] A dash (-) response means no test result.

[2] = tested on: sedge, umbrella (small-flower umbrella sedge, Cyperus difformis); assay: as above; conditions: Flood, 250 g ai/ha; scale 0 to 100 (0 no effect, 100 complete control); 13 to 15 days
Description: as §1

[3] = tested on: ducksalad (Heteranthera limosa); assay: as above; conditions: Flood, 250 g ai/ha; scale 0 to 100 (0 no effect, 100 complete control); 13 to 15 days
Description: as §1

rice (Oryza sativa) = assay: as above; conditions: Flood, 250 g ai/ha; scale 0 to 100 (0 no effect, 100 complete control); 13 to 15 days
Description: as §1

[4] = tested on: barnyardgrass (Echinochloa crus-galli); assay: Test A pre-/postemergence greenhouse herbicide test, visual injury rating 0-100
In short: (§2)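 Planting in a loam and sand mixture preceded a directed preemergence soil spray; postemergence spray was applied concurrently to one- to two-leaf plants. After roughly 10 days under glass, injury is scored visually against untreated controls, 0–100.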

corn (Zea mays) = assay: as above
In short: as §2

[5] = tested on: morningglory (Ipomoea spp.); assay: as above
In short: as §2

[6] = tested on: pigweed (Amaranthus retroflexus); assay: as above
In short: as §2

[7] = tested on: giant foxtail (Setaria faberii); assay: as above
In short: as §2

[8] = tested on: wheat (Triticum aestivum); assay: as above
In short: as §2

[9] = tested on: velvetleaf (Abutilon theophrasti); assay: as above
In short: as §2

[10] = tested on: large (Lg) crabgrass (Digitaria sanguinalis); assay: as above
In short: as §2

SMILES: O=C(c1cncc(F)c1)c1c[nH]nc1-c1cc(F)cc(F)c1 [Compound 23]
- Plant response rating, Barnyardgrass [1]: 0
- Plant response rating, Sedge, Umbrella [2]: 0
- Plant response rating, Ducksalad [3]: 0
- Plant response rating, Rice (rice (Oryza sativa)): 0
- Plant response rating (0 to 100 scale), Barnyardgrass ([4]; Postemergence, 125 g ai/ha): 0
- Plant response rating (0 to 100 scale), Barnyardgrass ([4]; Postemergence, 500 g ai/ha): 0
- Barnyardgrass plant response rating (0 = no effect, 100 = complete control) ([4]; Preemergence, 125 g ai/ha): 0
- Plant response rating (0 to 100 scale), Barnyardgrass ([4]; Preemergence, 500 g ai/ha): 0
- Plant response rating (0 to 100 scale), Corn (corn (Zea mays); Postemergence, 125 g ai/ha): 0
- Plant response rating (0 to 100 scale), Corn (corn (Zea mays); Postemergence, 500 g ai/ha): 0
- Corn plant response rating (0 = no effect, 100 = complete control) (corn (Zea mays); Preemergence, 125 g ai/ha): 0
- Plant response rating (0 to 100 scale), Corn (corn (Zea mays); Preemergence, 500 g ai/ha): 0
- Plant response rating (0 to 100 scale), Morningglory ([5]; Postemergence, 125 g ai/ha): 0
- Plant response rating (0 to 100 scale), Morningglory ([5]; Postemergence, 500 g ai/ha): 0
- Morningglory plant response rating (0 = no effect, 100 = complete control) ([5]; Preemergence, 125 g ai/ha): 0
- Plant response rating (0 to 100 scale), Morningglory ([5]; Preemergence, 500 g ai/ha): 0
- Plant response rating (0 to 100 scale), Pigweed ([6]; Postemergence, 125 g ai/ha): 50
- Plant response rating (0 to 100 scale), Pigweed ([6]; Postemergence, 500 g ai/ha): 60
- Pigweed plant response rating (0 = no effect, 100 = complete control) ([6]; Preemergence, 125 g ai/ha): 70
- Plant response rating (0 to 100 scale), Pigweed ([6]; Preemergence, 500 g ai/ha): 100
- Plant response rating (0 to 100 scale), Foxtail, Giant ([7]; Postemergence, 125 g ai/ha): 0
- Plant response rating (0 to 100 scale), Foxtail, Giant ([7]; Postemergence, 500 g ai/ha): 0
- Foxtail, Giant plant response rating (0 = no effect, 100 = complete control) ([7]; Preemergence, 125 g ai/ha): 0
- Plant response rating (0 to 100 scale), Foxtail, Giant ([7]; Preemergence, 500 g ai/ha): 0
- Plant response rating (0 to 100 scale), Wheat ([8]; Postemergence, 125 g ai/ha): 0
- Plant response rating (0 to 100 scale), Wheat ([8]; Postemergence, 500 g ai/ha): 0
- Wheat plant response rating (0 = no effect, 100 = complete control) ([8]; Preemergence, 125 g ai/ha): 0
- Plant response rating (0 to 100 scale), Wheat ([8]; Preemergence, 500 g ai/ha): 0
- Plant response rating (0 to 100 scale), Velvetleaf ([9]; Postemergence, 125 g ai/ha): 0
- Plant response rating (0 to 100 scale), Velvetleaf ([9]; Postemergence, 500 g ai/ha): 40
- Velvetleaf plant response rating (0 = no effect, 100 = complete control) ([9]; Preemergence, 125 g ai/ha): 60
- Plant response rating (0 to 100 scale), Velvetleaf ([9]; Preemergence, 500 g ai/ha): 90
- Plant response rating (0 to 100 scale), Crabgrass, Large ([10]; Postemergence, 125 g ai/ha): 0
- Plant response rating (0 to 100 scale), Crabgrass, Large ([10]; Postemergence, 500 g ai/ha): 0
- Plant response rating (0 to 100 scale), Crabgrass, Large ([10]; Preemergence, 500 g ai/ha): 0

SMILES: Clc1cccc(NN=C(c2ccccc2)c2c[nH]nc2-c2cc(Cl)cc(Cl)c2)c1 [Compound 56]
- Plant response rating, Barnyardgrass [1]: 0
- Plant response rating, Sedge, Umbrella [2]: 0
- Plant response rating, Ducksalad [3]: 0
- Plant response rating, Rice (rice (Oryza sativa)): 0
- Plant response rating (0 to 100 scale), Barnyardgrass ([4]; Postemergence, 1000 g ai/ha): 0
- Plant response rating (0 to 100 scale), Barnyardgrass ([4]; Preemergence, 1000 g ai/ha): 0
- Plant response rating (0 to 100 scale), Corn (corn (Zea mays); Postemergence, 1000 g ai/ha): 0
- Plant response rating (0 to 100 scale), Corn (corn (Zea mays); Preemergence, 1000 g ai/ha): 0
- Plant response rating (0 to 100 scale), Morningglory ([5]; Postemergence, 1000 g ai/ha): 0
- Plant response rating (0 to 100 scale), Morningglory ([5]; Preemergence, 1000 g ai/ha): 0
- Plant response rating (0 to 100 scale), Pigweed ([6]; Postemergence, 1000 g ai/ha): 90
- Plant response rating (0 to 100 scale), Pigweed ([6]; Preemergence, 1000 g ai/ha): 100
- Plant response rating (0 to 100 scale), Foxtail, Giant ([7]; Postemergence, 1000 g ai/ha): 0
- Plant response rating (0 to 100 scale), Foxtail, Giant ([7]; Preemergence, 1000 g ai/ha): 0
- Plant response rating (0 to 100 scale), Wheat ([8]; Postemergence, 1000 g ai/ha): 0
- Plant response rating (0 to 100 scale), Wheat ([8]; Preemergence, 1000 g ai/ha): 0
- Plant response rating (0 to 100 scale), Velvetleaf ([9]; Postemergence, 1000 g ai/ha): 90
- Plant response rating (0 to 100 scale), Velvetleaf ([9]; Preemergence, 1000 g ai/ha): 90
- Plant response rating (0 to 100 scale), Crabgrass, Large ([10]; Postemergence, 1000 g ai/ha): 0
- Plant response rating (0 to 100 scale), Crabgrass, Large ([10]; Preemergence, 1000 g ai/ha): 0
